Data taken from patent US6517856B1, “Insecticide resistance assay” (priority 1998, dated 2003).
Where “and” joins values, the source holds several entries; their conditions need not be identical. Equal values may be shown once.

Columns and labels:
[1] = tested on: H. zea; assay: Feeding disruption assay, CryIAc in Trypan Blue diet (fresh diet); format: in vivo, Helicoverpa zea
Procedure: The blue diet used in the feeding disruption bioassay is an agar based insect meal containing 20 mg of Trypan Blue (Direct Blue 14; Matheson Coleman & Bell, Norwood, Ohio) per 100 ml of standard artificial diet, and containing different concentrations of CryIAc (MVP, Mycogen). Larvae feeding on this colored diet produced blue feces which were easily distinguished by observation from feces derived from other food sources. Assays were conducted in 1-ounce clear plastic cups (Solo Cup Company, Urbana, Ill.; approximately […] in diameter and ¾ inches high) fitted with white cardboard tops, which are routinely used for insect rearing in the inventors' laboratories. The clear plastic allowed for the observation of blue feces without opening the container.
The diagnostic concentration for resistance detection was also investigated for its ability to distinguish Wake susceptible H. virescens from H. zea. In addition, dose response studies were conducted to identify a concentration of Bt that would distinguish resistant YHD2 neonates of H. virescens from H. zea. Dose response studies were duplicated for 25 resistant (HD2) tobacco budworms and 25 bollworms from two generations at different doses of Bt ranging from 0 to 1000 μg CryIAc/ml of blue diet.

[2] = tested on: H. virescens; assay: Modified feeding disruption bioassay on MVP-hydrated meal pads, field strains; format: in vivo, Heliothis virescens; conditions: for percentage producing 0-2 fecal pellets over 24 h: 0.05 μg MVP per ml diet
Procedure: Trypan Blue (Direct Blue 14; Matheson Coleman and Bell, Norwood, Ohio) was blended with artificial diet, 20 mg dye per 100 ml diet. Blue diet aliquots were dispensed (100 μl per well) into 8-well microtiter plate strips (Nalge Nunc Int., Napersville, Ill.). The blue dye served as a marker of feeding on the assay diet, with larvae feeding on colored diet producing blue feces which were easily distinguished visually from feces derived from other food sources. Microtiter plate strips containing blue diet were frozen at −80° C. and lyophilized (Bench Top 6, Virtis, Gardiner, N.Y.; cold trap=−70° C., ˜200 mTorr, ambient temperature=23° C.) for a minimum of 24 h in order to form hydratable meal pads. Meal pads were stored in the dark in sealed plastic bags with desiccant prior to use.
Meal pads were hydrated with aqueous dilutions of the B. thuringiensis CryIAc δ-endotoxin formulation MVP (Mycogen, San Diego, Calif.) at least 1 h prior to the start of assays. Fresh diet aliquots (100 μl) consistently lost 78-84% of their water content by weight during the lyophilization process. Therefore, meal pads were hydrated with 80 μl of MVP in distilled water (treatments) or distilled water only (controls). The insecticide concentrations referenced throughout this paper are in μg MVP per ml of diet, i.e. the final concentration of insecticide in hydrated diet, which is 80% of the concentration of the solution used to hydrate the meal pads. Strip caps (Nunc) were cut into single caps in order to seal wells of the microtiter plate strips individually, which facilitated observation within wells while not allowing neighboring larvae to escape. In order to reduce condensation within the wells and provide larvae with air, caps were punctured twice with a #3 insect pin. Bioassays were conducted at 27±1° C. with a 14:10 (L:D) cycle, and blue fecal pellets were counted at 24 h. Neonates were used in all assays and were exposed to assay diets within 24 h of hatch. The results from each assay are taken from two replicates of each dose, with each replicate consisting of 24 larvae, one larva per well. Control (no dose) treatments were replicated three times. Dead larvae (defined as no movement for 30 s after prodding with a blunt probe) at the assay endpoint (24 h) were discarded and not included in the reported results. For each surviving larva, the number of fecal pellets produced was recorded. Serial dilutions of the MVP formulation were used for meal pad hydration, with separate dilution series prepared for each replicate.
Following 24 h exposure to diet containing a known concentration of MVP (Mycogen), a surviving larva was designated as a ‘feeder’ if it had produced more than two fecal pellets and as a ‘non-feeder’ otherwise. The cut-off value of two fecal pellets was adopted because this provided the clearest separation between species. Probit analyses were applied to the dichotomized fecal pellet counts in order to compare strains, between and within species, with respect to the feeding disruption response. A probit model was then used to relate the proportion of non-feeders to dose (on a log10 scale). Probit curves were fitted separately for each insect strain, and a NFC50 (non-feeding concentration50; log10 of the MVP concentration resulting in 50% non-feeders) and slope was obtained for H. zea. Also, probit curves were compared across species and among strains within species using PROC GENMOD with LINK=PROBIT (SAS 1993) on the data for all strains combined, and fitting effects for species, strains within species, log10 dose, as well as dose by species and dose by strain within species interactions.
Probit estimates of the proportion of feeders at the diagnostic concentration for each strain were used to predict the properties of an assay involving exposure of a small number, n, of larvae in individual wells for 24 h to diet containing a diagnostic concentration of the MVP formulation (final MVP concentration in diet 0.04 μg/ml). […]

[3] = tested on: H. virescens; assay: Seven day mortality assay on neonates, CryIAc in artificial diet
Procedure: Insects were reared in the laboratory at 27±1° C. with a 14:10 (light:dark) cycle on a standard artificial diet (Gould et al., 1995; Rose et al., 1995). The Wake strain of H. virescens used was originally collected in 1986 from tobacco in Wake county, N.C. The YHD2 strain was originally collected as eggs from seven tobacco fields in Yadkin County, N.C., in July of 1988. The YHD2 larvae were reared each generation for about seven days from egg hatch on 1000 μg of Bt toxin CryIAc (MVP, commercial grade, >98.0% δ endotoxin, Mycogen Corporation, San Diego) per ml of artificial diet and then transferred to insecticide-free diet for the remainder of development.
Mortality data were analyzed using probit analysis (PROC PROBIT, SAS 1991).

[4] = tested on: H. virescens; conditions: Gould et al. 1995; cited from earlier work
[5] = H. zea neonates, 0.032 μg CryIAc/ml diet, 24 hour

CryIAc: Bacillus thuringiensis CryIAc δ-endotoxin, commercial formulation MVP (Mycogen), >98.0% δ endotoxin
blue fecal pellets produced per larva [1, 5]: ≥ 7 blue fecal pellets | percentage producing ≧15 blue fecal pellets [1, 5]: 99% | percentage producing no blue feces ([1]; H. zea neonates, 500 μg CryIAc/ml blue diet, 24 hours): 100% | percentage producing 0-2 fecal pellets in 24 h ([1]; laboratory susceptible H. zea colony, 1000 μg MVP per ml diet): 98.0% | percentage of insects producing >10 fecal pellets ([2]; H. virescens field strains pooled, 0.04 μg MVP per ml diet, 24 h): < 1% | ps, probability of a larva being a feeder, most conservative probit estimate ([2]; H. virescens strains, diagnostic concentration 0.04 μg/ml, 24 h): 0.02 | percentage producing 0-2 fecal pellets over 24 h ([2]; Hv Franklin neonates): 100% | feeding response (>2 fecal pellets) ([2]; Hv Franklin, 0.04 μg MVP per ml diet, 24 h): 2.1% | percentage producing 0-2 fecal pellets over 24 h ([2]; Hv Johnston neonates): 95.5% | ps, feeding probability ([2]; Hv Quitman (south Georgia), 0.04 μg MVP per ml diet, 24 h): 0.15 | percentage producing >5 fecal pellets ([2]; Hv Quitman neonates, 0.04 μg MVP per ml diet, 24 h): 2.2% | percentage producing 0-2 fecal pellets over 24 h ([2]; Hv Quitman neonates): 95.5% | feeding response (>2 fecal pellets) ([2]; Hv Quitman, 0.04 μg MVP per ml diet, 24 h): 14.9% | percentage producing >5 fecal pellets ([2]; Hv Washington neonates, 0.04 μg MVP per ml diet, 24 h): 4.3% | percentage producing 0-2 fecal pellets over 24 h ([2]; Hv Washington neonates): 97.7% | fecal pellets produced per larva (none observed above) ([2]; all H. virescens field strains, 0.04 μg MVP per ml diet, 24 h): ≤ 11 fecal pellets | LC50 ([3]; Wake strain, neonates, seven day mortality): 0.0017 μg CryIAc/ml diet | LC50 ([3]; YHD2(female)×Wake(male) hybrid F1 larvae): 0.129 μg CryIAc/ml diet | LC50 ([3]; YHD2 strain, neonates, seven day mortality): 2952 μg CryIAc/ml diet and 2952.0 μg CryIAc/ml diet | resistance of YHD2 strain to CryIAc compared to the Wake strain [4]: > 2000 fold
